How the values were obtained:
Swiss Webster mice = experiment: Formalin test; format: in vivo, mouse; details: orally; GL-IV-03 10 mg/kg; ketoprofen 30 mg/kg
Procedure: Webster mice were treated orally four days in advance with indicated compounds and doses before the injection of 2% formalin in the right hind paw. Mice were evaluated during the first 5 min (phase 1) and after 20 minutes (phase 2) for 5 minutes in 5 seconds intervals Licking and biting the right hind paw during a 5 second interval was noted and combined as total time addressing the injected paw. Data is given as mean with SEM (n =8). ** indicate p<0.01 (unpaired t-test).
The antinociceptive effect of GL-IV-03 was investigated with the formalin test. Paw injections of formalin elicited a biphasic pain response separated in time (1-5 minutes and 20-60 minutes). […] Sensorimotor impairment and sedation were investigated with mice that were trained to balance on a rotating rod over a period of three minutes (rotarod). The amount of time that mice remained balanced on the rod after intraperitoneal (i.p.) and oral (p.o.) treatment with GL-IV-03 and MP-IV-010 is summarized in FIG. 7B-7C. […] The effect was similar to non-steroidal anti-inflammatory drug ketoprofen at 30 mg/kg. Sedation and inhibition of sensorimotor coordination can influence licking and biting pain behaviors, prompting rotarod studies for GL-IV-03 and MP-IV-010. […] In contrast to diazepam, a benzodiazepine with high affinity for the α1β2/3γ2 and other GABAAR subtypes, was sedating at 5 mg/kg.
Formalin test. […]

iNOS protein = experiment: iNOS ELISA in activated microglia; format: cell-based, mouse; details: 10 μM, 24 h treatment, vs vehicle
Procedure: Mouse microglia were activated with IFNγ/LPS and treated with vehicle or 10 μM GL-IV-03. mRNA was isolated after 15 min, 1 h, 3 h and 6 h and iNOS was quantified using RT-qPCR. Cycle numbers for each sample were normalized to GAPDH using the ΔCt method (n=3). Mouse microglia were activated with IFNγ/LPS and treated with vehicle or 10 μM GL-IV-03 for 24 h. Cellular protein was extracted and analyzed with the mouse iNOS ELISA kit from Abcam (n=3). *, (p<0.05), ** (p<0.01) or *** (p<0.001) significance was calculate with ANOVA.
iNOS ELISA. Mouse microglia (2 mL of 500,000 cells/mL cell solution) were activated with 50 ng/mL LPS (Invivogen, NC9836) and 150 U/mL IFNγ (R&D Systems, 485M1100), and treated with compounds of interest in 6 well plates (VWR, 10062-892) for 24 hours. […] Cells were lysed with RIPA buffer and protein concentration quantified with the Pierce Rapid Gold BCA Protein Assay Kit (Thermo Scientific, A53227). Samples at 50 μg/mL were analyzed with the Mouse iNOS ELISA kit (ABCAM, ab253219). Absorbance (λ: 450 nm) was measured using a TECAN Infinite M1000 plate reader. Each measurement was carried with an n=3 and significance analyzed by ANOVA.

M5 = M5 (Homo sapiens, UniProt P08912); experiment: PDSP primary binding M5; details: PDSP primary screening
Procedure: (§1) Because reduction of NO could not be reversed by GABAAR antagonists, the possible binding of MP-IV-010 to other cellular receptors was evaluated in collaboration with the NIMH Psychoactive Drug Screening Program.
(§2) Psychoactive Drug Screening Program. Detailed protocols for the primary and secondary radioligand binding assays can be found in the National Institute of Mental Health's Psychoactive Drug Screening Program (NIMH PDSP) Assay Protocol Book. Briefly, primary and secondary radioligand binding assays are carried out in a final of volume of 125 μL per well in appropriate binding buffer. The radioactive ligand concentration is close to the Kd. Total binding and nonspecific binding are determined in the absence and presence of 10 μM of appropriate reference compound, respectively. In brief, plates are usually incubated at room temperature and in the dark for 90 min. Reactions are stopped by vacuum filtration onto 0.3% polyethyleneimine (PEI) soaked 96-well filter mats using a 96-well Filtermate harvester, followed by three washes with cold PBS buffer. Scintillation cocktail is then melted onto the microwave-dried filters on a hot plate and radioactivity counted in a Microbeta counter. The data (n=6) were analyzed by nonlinear regression.

M1 = M1 (Homo sapiens, UniProt P11229); experiment: PDSP primary binding M1; details: PDSP primary screening
Procedure: as §1, §2

D2 = D2 (Homo sapiens, UniProt P14416); experiment: PDSP primary binding D2; details: PDSP primary screening
Procedure: as §1, §2

iNOS = iNOS activity in activated microglia after compound treatment; format: cell-based, mouse; details: 50 μM, treatment for 24 h
Procedure: The cellular proteins were isolated from mouse microglia treated with vehicle and mouse microglia activated with IFNγ/LPS and treated for 24 hours with vehicle or 50 μM MP-IV-010. The specific iNOS activity was determined with an Abcam INOS Activity Assay kit (n=4).
Next, the possible involvement of INOS in MP-IV-010 (and structurally similar compound GL-IV-03) mediated reduction of NO in activated microglia was investigated. INOS activity was measured in activated microglia after a 24-hour treatment with MP-IV-010. Second, proteins were harvested from microglia activated for 24 hours with LPS/INFγ, followed by a 2-hour treatment with MP-IV-010 before measuring iNOS activity. Finally, mRNA and protein levels were quantified for GL-IV-03 treated activated microglia to examine the transcriptional regulation of iNOS.
iNOS activity assay. Mouse microglia were activated with 50 ng/mL LPS (Invivogen, NC9836) and 150 U/mL IFNγ (R&D Systems, 485MI100), and treated with compounds of interest in 6 well plates for 2 or 24 hours. […] Protein was collected, quantified, and analyzed with the Nitric Oxide Synthase Activity kit (Abcam, ab211083) with minor alterations to the established protocol. […] Absorbance at 540 nm was measured using a TECAN Infinite M1000 plate reader. Significance (n=3) was analyzed by ANOVA.

Calcium Channel = experiment: PDSP primary binding Calcium Channel; details: PDSP primary screening
Procedure: as §1, §2

D1 = D1 (Homo sapiens, UniProt P21728); experiment: PDSP primary binding D1; details: PDSP primary screening
Procedure: as §1, §2

M4 = M4 (Homo sapiens, UniProt P08173); experiment: PDSP primary binding M4; details: PDSP primary screening
Procedure: as §1, §2

Chain of D1 (P21728 whole entry): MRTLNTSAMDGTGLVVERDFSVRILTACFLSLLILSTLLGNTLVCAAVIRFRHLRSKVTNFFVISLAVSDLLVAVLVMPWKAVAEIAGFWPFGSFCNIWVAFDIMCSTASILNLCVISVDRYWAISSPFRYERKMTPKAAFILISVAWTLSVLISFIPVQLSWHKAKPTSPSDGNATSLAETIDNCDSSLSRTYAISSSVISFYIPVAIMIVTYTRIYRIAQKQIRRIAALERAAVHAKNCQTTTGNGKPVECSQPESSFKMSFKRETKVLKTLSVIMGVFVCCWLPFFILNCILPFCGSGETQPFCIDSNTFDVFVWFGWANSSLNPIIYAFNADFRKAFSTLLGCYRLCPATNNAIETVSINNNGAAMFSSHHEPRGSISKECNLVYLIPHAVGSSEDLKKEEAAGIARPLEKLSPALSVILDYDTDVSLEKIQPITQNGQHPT
Chain of M4 (P08173 whole entry): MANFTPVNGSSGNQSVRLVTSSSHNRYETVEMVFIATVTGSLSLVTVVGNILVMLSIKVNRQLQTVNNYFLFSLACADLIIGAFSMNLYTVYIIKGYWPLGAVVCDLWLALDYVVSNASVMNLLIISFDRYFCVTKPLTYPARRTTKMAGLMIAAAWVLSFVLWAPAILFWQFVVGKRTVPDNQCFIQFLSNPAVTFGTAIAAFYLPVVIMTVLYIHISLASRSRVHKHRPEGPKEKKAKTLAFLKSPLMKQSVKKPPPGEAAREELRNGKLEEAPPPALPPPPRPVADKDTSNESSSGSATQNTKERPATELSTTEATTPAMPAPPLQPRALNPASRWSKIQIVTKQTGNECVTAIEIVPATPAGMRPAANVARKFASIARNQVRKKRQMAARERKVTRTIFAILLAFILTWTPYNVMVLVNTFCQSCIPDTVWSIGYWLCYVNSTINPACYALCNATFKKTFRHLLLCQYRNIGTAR
Chain of M5 (P08912 whole entry): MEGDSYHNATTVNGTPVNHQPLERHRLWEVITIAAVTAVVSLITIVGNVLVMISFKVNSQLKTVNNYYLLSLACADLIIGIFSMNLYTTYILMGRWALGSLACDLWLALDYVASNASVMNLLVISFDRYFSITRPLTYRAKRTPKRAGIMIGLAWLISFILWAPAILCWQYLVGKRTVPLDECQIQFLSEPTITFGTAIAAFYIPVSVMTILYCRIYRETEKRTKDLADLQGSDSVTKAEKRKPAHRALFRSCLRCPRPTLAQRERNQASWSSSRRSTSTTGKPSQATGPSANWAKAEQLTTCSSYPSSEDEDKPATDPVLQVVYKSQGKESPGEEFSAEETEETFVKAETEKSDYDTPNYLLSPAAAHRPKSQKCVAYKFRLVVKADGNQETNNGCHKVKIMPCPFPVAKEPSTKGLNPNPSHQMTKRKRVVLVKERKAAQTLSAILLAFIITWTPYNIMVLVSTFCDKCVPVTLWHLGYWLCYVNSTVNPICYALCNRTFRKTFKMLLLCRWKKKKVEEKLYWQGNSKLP
Chain of D2 (P14416 whole entry): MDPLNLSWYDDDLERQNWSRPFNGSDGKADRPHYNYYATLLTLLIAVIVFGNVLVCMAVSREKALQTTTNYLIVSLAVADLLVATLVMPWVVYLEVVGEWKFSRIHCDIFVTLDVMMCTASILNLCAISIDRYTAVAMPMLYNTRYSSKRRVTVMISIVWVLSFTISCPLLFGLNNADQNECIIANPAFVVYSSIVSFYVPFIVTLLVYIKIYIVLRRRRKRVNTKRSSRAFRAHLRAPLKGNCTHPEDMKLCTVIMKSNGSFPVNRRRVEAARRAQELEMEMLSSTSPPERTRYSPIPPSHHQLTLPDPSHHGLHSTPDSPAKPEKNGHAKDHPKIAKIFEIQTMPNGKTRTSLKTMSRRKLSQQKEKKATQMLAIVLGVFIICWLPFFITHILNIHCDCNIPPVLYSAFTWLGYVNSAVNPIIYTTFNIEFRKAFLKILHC
Chain of M1 (P11229 whole entry): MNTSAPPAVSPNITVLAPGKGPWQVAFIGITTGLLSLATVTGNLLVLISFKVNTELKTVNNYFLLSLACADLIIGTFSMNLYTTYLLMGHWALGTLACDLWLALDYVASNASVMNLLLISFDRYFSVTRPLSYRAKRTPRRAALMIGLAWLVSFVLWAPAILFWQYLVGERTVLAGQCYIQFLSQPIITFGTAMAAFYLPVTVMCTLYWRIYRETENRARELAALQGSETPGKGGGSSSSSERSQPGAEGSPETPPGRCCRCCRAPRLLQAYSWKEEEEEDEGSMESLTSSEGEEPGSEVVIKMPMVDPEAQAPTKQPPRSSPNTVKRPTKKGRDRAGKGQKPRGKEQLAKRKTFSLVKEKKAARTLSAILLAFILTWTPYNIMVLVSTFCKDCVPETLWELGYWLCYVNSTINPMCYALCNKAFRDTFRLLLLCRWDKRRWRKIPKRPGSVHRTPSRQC

Structure (SMILES)	antinociceptive effect, formalin test (phase 1 and 2) (Swiss Webster mice)	amount of iNOS protein (iNOS protein)	Percent Competition M5 (M5)	Percent Competition M1 (M1)	Percent Competition D2 (D2)	iNOS activity in activated microglia (iNOS)	Percent Competition Calcium Channel (Calcium Channel)	Percent Competition D1 (D1)	Percent Competition M4 (M4)
CCc1noc(-c2ncn3c2[C@@H](C)N=C(c2ccccc2F)c2cc(C4CC4)ccc2-3)n1 [GL-IV-03, (R)-5-(8-Cyclopropyl-6-(2-fluorophenyl)-4-methyl-4H-benzo[f]imidazo[1,5-a][1,4]diazepin-3-yl)-3-ethyl-1,2,4-oxadiazole]	antinociceptive effects in both acute pain (phase 1) and inflammation mediated pain (phase 2)	significantly lower	–	–	–	–	–	–	–
C#Cc1ccc2c(c1)C(c1ccccc1F)=N[C@H](C)c1c(-c3nc(C(C)C)no3)ncn1-2 [MP-IV-010, (R)-5-(8-ethynyl-6-(2-fluorophenyl)-4-methyl-4H-benzo[f]imidazo[1,5-a][1,4]diazepin-3-yl)-3-isopropyl-1,2,4-oxadiazole]	–	–	26%	−11%	25%	completely inhibited	15%	28%	8%

Reference: US20240279232A1, “USE OF SUBSTITUTED 5-(4-METHYL-6-PHENYL-4H-BENZO[F]IMIDAZO[1,5-A][1,4] DIAZEPIN-3-YL)-1,2,4-O[…] THE TREATMENT OF INFLAMMATORY CONDITIONS” (priority 2021, published 2024)
